Data reported in the NIST ThermoML archive (doi:10.1021/je800110r).

Settings: 303.16 K, Liquid, Vibrating tube method

CCCCCCCCCC [decane]
Settings | mass density [kg/m3]
20929 kPa | 738
20946 kPa | 738.2
20968 kPa | 738.1
20994 kPa | 738
21014 kPa | 738.1
21034 kPa | 738.1
21060 kPa | 738.2
21084 kPa | 738.1
21107 kPa | 738.2
21124 kPa | 738.2
21151 kPa | 738.1
21174 kPa | 738.2
21191 kPa | 738.2
21209 kPa | 738.2
21226 kPa | 738.3
21243 kPa | 738.2
21267 kPa | 738.4
21293 kPa | 738.3
21314 kPa | 738.3
21341 kPa | 738.3
21358 kPa | 738.4
21382 kPa | 738.3
21403 kPa | 738.3
21424 kPa | 738.5
21448 kPa | 738.4
21469 kPa | 738.5
21490 kPa | 738.4
21514 kPa | 738.4
21538 kPa | 738.4
21560 kPa | 738.6
21579 kPa | 738.5
21600 kPa | 738.5
21622 kPa | 738.5
21641 kPa | 738.5
21662 kPa | 738.6
21686 kPa | 738.6
21708 kPa | 738.7
21730 kPa | 738.6
21745 kPa | 738.7
21779 kPa | 738.7
21805 kPa | 738.6
21827 kPa | 738.7
21847 kPa | 738.7
21869 kPa | 738.6
21891 kPa | 738.7
21916 kPa | 738.7
21938 kPa | 738.8
21962 kPa | 738.8
21987 kPa | 738.7
22006 kPa | 738.8
22029 kPa | 738.9
22057 kPa | 738.8
22086 kPa | 738.8
22108 kPa | 738.7
22127 kPa | 738.9
22153 kPa | 738.8
22178 kPa | 738.9
22201 kPa | 738.8
22224 kPa | 739
22246 kPa | 738.9
22269 kPa | 738.9
22291 kPa | 739.1
22314 kPa | 739
22333 kPa | 738.9
22360 kPa | 739
22380 kPa | 739
22410 kPa | 739
22436 kPa | 739
22463 kPa | 739.1
22489 kPa | 739.1
22516 kPa | 739
22542 kPa | 739.1
22565 kPa | 739.1
22589 kPa | 739.2
22619 kPa | 739.2
22647 kPa | 739.2
22666 kPa | 739.2
22696 kPa | 739.3
22723 kPa | 739.2
22750 kPa | 739.3
22773 kPa | 739.3
22801 kPa | 739.4
22825 kPa | 739.3
22846 kPa | 739.3
22870 kPa | 739.4
22897 kPa | 739.3
22918 kPa | 739.3
22950 kPa | 739.5
22971 kPa | 739.4
22996 kPa | 739.5
23013 kPa | 739.5
23041 kPa | 739.4
23062 kPa | 739.5
23097 kPa | 739.5
23124 kPa | 739.5
23149 kPa | 739.6
23174 kPa | 739.6
23202 kPa | 739.6
23224 kPa | 739.6
23257 kPa | 739.7
23285 kPa | 739.6
23310 kPa | 739.6
23339 kPa | 739.7
23360 kPa | 739.7
23385 kPa | 739.6
23411 kPa | 739.7
23437 kPa | 739.8
23466 kPa | 739.7
23495 kPa | 739.8
23526 kPa | 739.7
23549 kPa | 739.7
23575 kPa | 739.9
23600 kPa | 739.8
23630 kPa | 739.9
23652 kPa | 739.9
23682 kPa | 739.9
23705 kPa | 739.9
23735 kPa | 739.9
23761 kPa | 740
23784 kPa | 739.9
23813 kPa | 739.9
23845 kPa | 740.1
23872 kPa | 740
23902 kPa | 740.1
23933 kPa | 740.1
23968 kPa | 740.1
23991 kPa | 740.1
24021 kPa | 740.2
24048 kPa | 740.2
24083 kPa | 740.1
24102 kPa | 740.1
24133 kPa | 740.2
24165 kPa | 740.2
24200 kPa | 740.3
24235 kPa | 740.3
24255 kPa | 740.2
24282 kPa | 740.4
